Measurements taken from PubChem BioAssay (NCI).
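48-hour exposure; five concentrations; linearly interpolated endpoints. Abbreviation: GI50, concentration required for 50% inhibition of growth. At the TGI there is no net growth.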

How the values were obtained:
Experiment in all cases: NCI anticancer screen, dose series, 48 h
[1] = system: MCF7 breast
[2] = system: RXF 393 renal
[3] = system: UACC-62 melanoma
[4] = system: U251 CNS
[5] = system: SF-295 CNS
[6] = system: OVCAR-8 ovarian
[7] = system: HOP-62 NSCLC
[8] = system: SK-MEL-5 melanoma
[9] = system: NCI-H522 lung
[10] = system: PC-3 prostate
[11] = system: MOLT-4 leukemia
[12] = system: DU-145 prostate
[13] = system: SW-620 colon
[14] = system: SK-OV-3 ovarian
[15] = system: HOP-92 NSCLC
[16] = system: UACC-257 melanoma
[17] = system: NCI-H460 lung
[18] = system: EKVX NSCLC
[19] = system: A498 renal
[20] = system: CCRF-CEM leukemia
[21] = system: SNB-19 CNS
[22] = system: T-47D breast
[23] = system: OVCAR-4 ovarian
[24] = system: SN12C renal
[25] = system: MDA-MB-435
[26] = system: HCC-2998 colon
[27] = system: A549 NSCLC
[28] = system: SF-268 CNS
[29] = system: TK-10 renal
[30] = system: HS 578T breast
[31] = system: SNB-75 CNS
[32] = system: SK-MEL-28 melanoma
[33] = system: OVCAR-5 ovarian
[34] = system: K-562 leukemia
[35] = system: SF-539 CNS
[36] = system: MDA-MB-231 breast
[37] = system: M14 melanoma
[38] = system: ACHN renal
[39] = system: KM12 colon
[40] = system: HCT-15 colon
[41] = system: BT-549 breast
[42] = system: UO-31 renal
[43] = system: HT29 colon
[44] = system: IGROV1 ovarian
[45] = system: LOX IMVI melanoma
[46] = system: NCI/ADR-RES ovarian
[47] = system: NCI-H226 lung
[48] = system: SK-MEL-2 melanoma
[49] = system: 786-0 renal
[50] = system: COLO 205 colon
[51] = system: NCI-H23 lung
[52] = system: MALME-3M melanoma

Compound `Cc1cc(N2CCOCC2)nc(N(CCNc2ccnc3cc(Cl)ccc23)Cc2ccco2)n1` has a GI50 [1] of 3.15 µM, a TGI [1] of 18.9 µM and a GI50 [2] of 1.64 µM. The TGI [2] was 4.29 µM, the GI50 [3] was 3.25 µM and the TGI [3] was 10 µM. For the same compound, the GI50 [4] was 3.21 µM, the TGI [4] was 12.4 µM and the GI50 [5] was 1.68 µM. The TGI [5] was 3.64 µM, the GI50 [6] was 3.84 µM and the TGI [6] was > 100 µM. The GI50 [7] was 3.62 µM, the TGI [7] was 31.3 µM and the GI50 [8] was 3.1 µM. For the same compound, the TGI [8] was 12.1 µM, the GI50 [9] was 1.84 µM and the TGI [9] was 4.75 µM. For the same compound, the GI50 [10] was 4.38 µM, the TGI [10] was 20.6 µM and the GI50 [11] was 3.41 µM. The TGI [11] was > 100 µM, the GI50 [12] was 6.85 µM and the TGI [12] was 26.5 µM. For the same compound, the GI50 [13] was 3.39 µM, the TGI [13] was 45.2 µM and the GI50 [14] was 7.01 µM. It also gave a TGI [14] of 22 µM, a GI50 [15] of 2.1 µM and a TGI [15] of 8.19 µM. It also gave a GI50 [16] of 3.41 µM, a TGI [16] of 16.5 µM and a GI50 [17] of 3.72 µM. The TGI [17] was 23.9 µM, the GI50 [18] was 12.7 µM and the TGI [18] was 35.4 µM. For the same compound, the GI50 [19] was 2.47 µM, the TGI [19] was 12.6 µM and the GI50 [20] was 3.18 µM. The TGI [20] was > 100 µM, the GI50 [21] was 6.49 µM and the TGI [21] was 48.1 µM. The GI50 [22] was 2.13 µM, the TGI [22] was 4.92 µM and the GI50 [23] was 2.4 µM. The TGI [23] was 8.12 µM, the GI50 [24] was 6.88 µM and the TGI [24] was 26.7 µM. The GI50 [25] was 3.27 µM, the TGI [25] was 15.2 µM and the GI50 [26] was 6.12 µM. The TGI [26] was 44.8 µM, the GI50 [27] was 6.2 µM and the TGI [27] was 39.1 µM. It also gave a GI50 [28] of 11.1 µM, a TGI [28] of 46 µM and a GI50 [29] of 2.71 µM. It also gave a TGI [29] of 9.62 µM, a GI50 [30] of 2.64 µM and a TGI [30] of 10.1 µM. For the same compound, the GI50 [31] was 2.59 µM, the TGI [31] was 7.77 µM and the GI50 [32] was 2.69 µM. It also gave a TGI [32] of 7.67 µM, a GI50 [33] of 9.4 µM and a TGI [33] of 44.6 µM. The GI50 [34] was 2.91 µM, the TGI [34] was > 100 µM and the GI50 [35] was 1.95 µM. It also gave a TGI [35] of 4.41 µM, a GI50 [36] of 3.16 µM and a TGI [36] of 13.4 µM. The GI50 [37] was 2.34 µM, the TGI [37] was 6.43 µM and the GI50 [38] was 3.46 µM. For the same compound, the TGI [38] was 15.3 µM, the GI50 [39] was 4.81 µM and the TGI [39] was 53.5 µM. The GI50 [40] was 3.6 µM, the TGI [40] was 34.9 µM and the GI50 [41] was 2.8 µM. It also gave a TGI [41] of 8.69 µM, a GI50 [42] of 1.99 µM and a TGI [42] of 6.97 µM. It also gave a GI50 [43] of 1.92 µM, a TGI [43] of 5.53 µM and a GI50 [44] of 3.92 µM. It also gave a TGI [44] of 23.1 µM, a GI50 [45] of 2.03 µM and a TGI [45] of 4.91 µM. It also gave a GI50 [46] of 4.5 µM, a TGI [46] of 68.8 µM and a GI50 [47] of 3.78 µM. The TGI [47] was 25.5 µM, the GI50 [48] was 2.14 µM and the TGI [48] was 5.18 µM. The GI50 [49] was 2.14 µM, the TGI [49] was 4.91 µM and the GI50 [50] was 2.34 µM. The TGI [50] was > 100 µM, the GI50 [51] was 5.58 µM and the TGI [51] was 35.4 µM. It also gave a GI50 [52] of 3.41 µM and a TGI [52] of 10.3 µM.
